Data on 1 compound can be found in ChEMBL document CHEMBL1150230, “Mappain, a new cytotoxic prenylated stilbene from Macaranga mappa” (J Nat Prod, 2001).

For orientation: IC50 means the concentration that gives 50% inhibition.

Holding throughout (type): functional, cell-based
One assay deals with SK-OV-3. Nature of the assay: Cytotoxicity against multidrug-sensitive human SKOV3 cells by SRB assay.
A short description of assay [1]: Cytotoxicity against multidrug-resistant human SKVLB1cells by SRB assay.
For the next assay, the system named is MDA-MB-435. Nature of the assay: Cytotoxicity against multidrug-sensitive human MDA-MB-435 cells by SRB assay. In general terms: Sulforhodamine B stains cellular protein and so reports cell mass.

Regarding `CC(C)=CCC/C(C)=C/Cc1cc(/C=C/c2cc(O)c(CC=C(C)C)c(O)c2)cc(O)c1O` [MAPPAIN], the concentration for half-maximal inhibition (IC50) with SK-OV-3 was 1.3 µM; in assay [1] it was 1.3 µM; in the assay with MDA-MB-435, 1 µM.
